# Numbered stars: 1 amine (or outer) side, 2 acyl side, 3 side chain; on linkers, the order of the positions; unused ones are H or OH. Square brackets hold non-standard residues; d marks the D form. Peptide text beside a SMILES is read from it. X1 = O=C(Cc1ccc(CCN[*:1])cc1)[*:2]
# Key:
# SARS-CoV-2 = conditions: cell-based studies; cited from earlier work
# SARS-CoV-2 M^pro [1] = target: T1, SARS-CoV-2 M^pro (Severe acute respiratory syndrome coronavirus 2, UniProt P0DTD1); experiment: LC/MS analysis of enzyme inhibition assay well solution for cleavage of UCI-1 by M^pro; type: biochemical; conditions: 187.5 μM UCI-1 well solution after 4 hours, compared with peptide-1c spike
# T1 construct: purchased Life Sensors
# HEK-293 cells = conditions: 72 hours
# SARS-CoV-2 M^pro [2] = target: T1, SARS-CoV-2 M^pro; experiment: biochemical; conditions: 0.1 μM M^pro, 50 μM fluorogenic substrate, 30 min pre-incubation, 37° C., non-linear regression of initial rates; read-out: IC50 against M^pro
Structure (SMILES),SARS-CoV-2 replication (SARS-CoV-2),further results
O=C[C@H](C[C@@H]1CCNC1=O)NC(=O)[C@H](Cc1cccc(F)c1)NC(=O)c1cc2ccccc2[nH]1 [11b],block SARS-CoV-2 replication,–
NCCCC[C@@H]1NC(=O)[C@H](CO)NC(=O)[C@H](CCC(N)=O)NC(=O)[C@H](Cc2ccccc2)NC(=O)Cc2ccc(cc2)CCNC1=O [UCI-1] (cyclo(FQSK[X1])),–,"cleavage by M^pro (SARS-CoV-2 M^pro [1]): not appreciably cleaved; cytotoxicity (HEK-293 cells; concentrations up to 256 μM, HEK-293): not cytotoxic; LDH release from HEK-293 cells (HEK-293 cells; highest concentration evaluated (256 μM)): little or no LDH release; IC50 (SARS-CoV-2 M^pro [2]): ~160 µM"
Cc1cc(C(=O)NC(C)C(=O)NC(C(=O)NC(CC(C)C)C(=O)NC(C=CC(=O)OCc2ccccc2)CC2CCNC2=O)C(C)C)no1 (centres unmarked) [N3],block SARS-CoV-2 replication,–
O=C[C@H](C[C@@H]1CCNC1=O)NC(=O)[C@H](CC1CCCCC1)NC(=O)c1cc2ccccc2[nH]1 [11a],block SARS-CoV-2 replication,–
CC(C)(C)OC(=O)Nc1cccn([C@@H](CC2CC2)C(=O)N[C@@H](C[C@@H]2CCNC2=O)C(=O)C(=O)NCc2ccccc2)c1=O [13b],block SARS-CoV-2 replication,–
